# US8574829B2, “Methods of treating cancer with phenformin” (The Trustees Of The University Of Pennsylvania, priority 2009, dated 2013)
# Entries after “also recorded” stand apart in the source; their conditions may differ.
# Columns and labels:
# [1] = system: K562 cells; test: Glutamine uptake of K562 cultures over four days; assay type: cell-based; conditions: FIG. 8
# Method: (§1) Daily cell culture supernatants were collected, and analyzed using the Nova Biomedical Bioprofile Flex Analyzer, which determined glucose, glutamine, lactate, and ammonia levels. For the HIF-1 induction experiments, K562 cells were incubated at 4 million cells/ml in a plastic tube (Falcon 35-2059) with rubber stopper (Kontes Glass Company #882310), with constant stirring at 37 C. At indicated time points, tubes were spun to pellet cells, and the glucose, lactate and pO2 content of supernatant was assessed by syringe sampling through an air-tight rubber stopper. After supernatant sampling, cells were collected and lysates were prepared as described above.
# To further investigate what functional role the TCA cycle might play in K562 proliferation, we compared the ability of phenformin-treated cells to metabolize glutamine. In tumor cells, glutaminolysis is important in maintaining TCA cycle activity, as it serves to provide an additional source of TCA cycle intermediates (a-ketoglutarate) to the mitochondria.
# [2] = system: K562 cells; test: K562 cell viability by propidium iodide exclusion over four days; assay type: cell-based; conditions: single dose, 1 mM phenformin, 750 nM imatinib, 25 nM rapamycin, FIG. 1B
# Method: (§2) K562 cell line was obtained from ATCC.
# K562 cells were treated with a single dose of imatinib, rapamycin, or phenformin, and assessed for cell number (Coulter Counter) and cell viability (by propidium iodide exclusion) over four days.
# [3] = system: Akt; test: Western blot of phospho-Akt in K562 cells 24 hours after inhibitor treatment; assay type: cell-based; conditions: relative to untreated, FIG. 2
# Excerpt: (§3) Western Blot Analysis. Cells were lysed in radioimmunoprecipitation (RIPA) buffer containing protease inhibitors (Complete Mini, Roche Applied Science), and protease inihibitors cocktails I and II (Sigma). BCA Protein Assay kit (Pierce Biotechnology) was used to assess and standardize protein concentrations. Proteins were resolved using a 4-12% NuPage Bis-Tris polyacrylamide gels (Invitrogen), and transferred to nitrocellulose membranes. Membranes were blocked using 5% nonfat dry skim milk and 0.1% Tween. […] Bands were subsequently detected using horseradish-peroxidase conjugated anti-mouse or anti-rabbit secondary antibodies (GE Healthcare Industries) and enhanced chemiluminescence detection kit (Amersham).
# (§4) To characterize the pattern of signaling pathway activation in inhibitor-treated cells, the activity of the Akt and Jak-STAT pathways were examined, two pathways known to be activated by the bcr-abl oncogenic signaling. Proteins were isolated from cells, 24 hours after inhibitor treatment, and assessed for levels of phospho-Akt ([…]) and phospho-STAT5 (tyr694/699), as well as total levels of these proteins as loading controls.
# [4] = system: K562 cells; test: K562 proliferation, cell number by Coulter Counter over four days after a single dose of inhibitor; conditions: FIG. 1A; for effect on K562 proliferation (cell number): 25 nM rapamycin, four days
# [5] = system: K562 cells; test: K562 viability under medium depletion of glucose or glutamine (propidium iodide exclusion, FACS); assay type: cell-based; conditions: K562, 4 days; FIG. 7
# Method: as §2
# The viability of K562 cells after variable inhibitor treatment, and selective medium depletion of glucose or glutamine, is shown. Cell viability was determined by propidium iodide exclusion of 10,000 cells (via FACS analysis), taken from each culture each day of experiment.
# [6] = system: STAT5; test: Western blot of phospho-STAT5 (tyr694/699) in K562 cells 24 hours after inhibitor treatment; assay type: cell-based; conditions: relative to untreated, FIG. 2
# Excerpt: as §3, §4
# [7] = system: K562 cells; test: Aerobic glycolysis: total glucose consumption and lactate production of K562 cultures over four days (Nova Bioprofile Flex Analyzer); assay type: cell-based; conditions: for glucose consumption: FIG. 5A; for lactate production: FIG. 5B
# Method: as §1
# To investigate the metabolic effects of phenformin on K562 cells, we compared the glycolytic activity of the cells in the drug-treated cultures by quantifying total glucose consumption and lactate production over four days (FIGS. 5A and 5B, respectively), by collecting and analyzing daily cell culture supernatants using a Nova Biomedical Bioprofile Flex Analyzer. […] Phenformin was therefore novel in its ability to dissociate aerobic glycolysis from cell proliferation.
# [8] = system: K562 cells; test: Comparison of phenformin and metformin: total K562 cell number after three days over a range of biguanide concentrations; assay type: cell-based; conditions: three days after a single dose, FIG. 3; for inhibition of K562 proliferation: started at 200,000 cells/ml
# Excerpt: Direct comparison of metformin and phenformin activity, over a range of biguanide concentrations, was accomplished by comparing total K562 cell number after three days of exposure to a single dose of phenformin or metformin, as indicated (FIG. 3). Cell cultures were started at a density of 200,000 cells/ml.
# [9] = treatment of diabetes; background statement; cited from earlier work
# [10] = system: Bax-Bak deficient lymphocytes; test: Proliferation of Bax-Bak deficient lymphocytes with IL-3 stimulation, total cell number after three days; assay type: cell-based; conditions: three days after a single dose, started at 200,000 cells/ml, FIG. 4
# Method: The ability of phenformin to inhibit the proliferation of Bax-Bak deficient lymphocytes, in the presence of IL-3 stimulation, was assessed, and compared to the activity of metformin. Direct comparison of metformin and phenformin activity, over a range of biguanide concentrations, was accomplished by comparing total cell numbers of bax-bak deficient cells after three days exposure to a single dose of phenformin or metformin, as indicated (FIG. 4). Cell cultures were started at a density of 200,000 cells/ml.
# [11] = system: c-myc; test: Western blot of BCR-Abl-induced c-myc expression in K562 cells after 24 hours of inhibitor treatment; assay type: cell-based; conditions: K562, 24 hours of inhibitor treatment; FIG. 9
# Excerpt: Western Blot Analysis. Cells were lysed in radioimmunoprecipitation (RIPA) buffer containing protease inhibitors (Complete Mini, Roche Applied Science), and protease inihibitors cocktails I and II (Sigma). BCA Protein Assay kit (Pierce Biotechnology) was used to assess and standardize protein concentrations. Proteins were resolved using a 4-12% NuPage Bis-Tris polyacrylamide gels (Invitrogen), and transferred to nitrocellulose membranes. Membranes were blocked using 5% nonfat dry skim milk and 0.1% Tween. Blots were subsequently probed with primary antibodies against: REDD-1 (Proteintech Group Inc), phospho-ser235/236 S6RP, total S6RP, phospho-thr172 AMPK, total-AMPK, phospho-tyr694/699 STAT5 (Upstate Biotechnology), total STAT5 (Upstate Biotechnology), phospho-thr202/tyr204 p42/44MAPK, total p42/44 MAPK, c-myc (Santa Cruz Biotechnologies), HIF-1a (Biosciences Pharmingen), and tubulin (Sigma). Unless otherwise indicated, all antibodies were obtained from Cell Signaling Technologies. Bands were subsequently detected using horseradish-peroxidase conjugated anti-mouse or anti-rabbit secondary antibodies (GE Healthcare Industries) and enhanced chemiluminescence detection kit (Amersham).
# Expression levels of c-myc in inhibitor and untreated (U) control K562 cells was investigated by Western Blotting of cellular extracts prepared after 24 hours of inhibitor treatment.
# [12] = system: K562 cells; test: Intracellular ATP levels (Invitrogen ATP determination kit); assay type: cell-based; conditions: K562, 24 hours of inhibitor treatment; 25,000 cell pellets; FIG. 6B
# Method: (§5) Oxygen consumption by whole cells was measured as previously described. See Schumacker P T, Chandei N, Agusti A G. Oxygen conformance of cellular respiration in hepatocytes. Am J. Physiol. 1993; 265:L395-402. Briefly, inhibitor-treated (24 hours) K562 cells were resuspended at a concentration of 4 million cells/ml, and 1.4 mL of culture was transferred to a water-jacketed, airtight 3 ml chamber with a Clarke oxygen electrode, (Hansatech Instruments). Electron transport activity was manipulated through mitochondrial uncoupling with 10 uL of 1 mM Carbonyl cyanide 3-chlorophenylhydrazone (CCCP) (Sigma), and media supplementation of sodium Succinate (25 uL of 1M stock), after membrane permeabilization with […] (4 ul of 25 mg/ml stock). Relative ATP levels were assessed using the Invitrogen ATP determination kit (A22066), as per protocol, using 25,000 cell pellets. Cells were assayed after 24 hours of inhibitor treatment, as indicated, and results were expressed as Arbitrary Units/25000 cells.
# Cells were assayed after 24 hours of inhibitor treatment, as indicated, and results were expressed as Arbitrary Units/25000 cells. Oxygen consumption correlated closely with relative levels of intracellular ATP.
# [13] = system: K562 cells; test: pO2, glucose and lactate in supernatants of K562 cells incubated in airtight tubes at 37° C.; assay type: cell-based; conditions: 1 to 6 hours, versus untreated, FIG. 10A
# Method: as §1
# Phenformin-treated and untreated K562 cells were transferred to airtight tubes and incubated at 37° C. for 1 to 6 hours. At one hour intervals, supernatants were analyzed for partial oxygen pressure (pO2), glucose, and lactate levels, while cells were collected for protein extract preparation. […] FIG. 10D. Tubulin serves as loading control.
# [14] = system: K562 cells; test: Oxygen consumption rate (electron transport activity), Clarke oxygen electrode; assay type: cell-based; conditions: 24 hours inhibitor treatment, relative to untreated, FIG. 6A
# Method: as §5
# Electron Transport Activity (ETC) activity, as determined by oxygen consumption rates, was assessed after treatment with each inhibitor, using a water-jacketed, airtight 3 ml chamber with a Clarke oxygen electrode, (Hansatech Instruments).
# [15] = system: HIF-1; test: HIF-1 induction in K562 cells in airtight tubes (Western blot); assay type: cell-based; conditions: 37° C., FIG. 10D
# Excerpt: as §3
# Daily cell culture supernatants were collected, and analyzed using the Nova Biomedical Bioprofile Flex Analyzer, which determined glucose, glutamine, lactate, and ammonia levels. […] At indicated time points, tubes were spun to pellet cells, and the glucose, lactate and pO2 content of supernatant was assessed by syringe sampling through an air-tight rubber stopper. […]
# Phenformin-treated and untreated K562 cells were transferred to airtight tubes and incubated at 37° C. for 1 to 6 hours. At one hour intervals, supernatants were analyzed for partial oxygen pressure (pO2), glucose, and lactate levels, while cells were collected for protein extract preparation. […]
# [16] = 1 mM phenformin, 750 nM imatinib
smiles,measurement,setting,value
Cc1ccc(NC(=O)c2ccc(CN3CCN(C)CC3)cc2)cc1Nc1nccc(-c2cccnc2)n1 [imatinib],glutamine uptake,[1],failed to demonstrate substantial glutamine uptake
same,cell viability,[2],induced a decrease in viability
same,Akt phosphorylation,[3],left Akt phosphoylation intact
same,doubling of cell number achieved before proliferation ceased,[4]; 750 nM imatinib,approximately one
same,time after which proliferation ceased,[4]; 750 nM imatinib,2 days
same,effect on K562 proliferation (cell number),[4]; [16],halted K562 proliferation
same,cell viability in glutamine-depleted medium,[5],significantly increased cell death upon glutamine depletion
same,STAT5 phosphorylation,[6],decreased the levels of STAT5 phosphorylation
same,glucose consumption,[7],minimal glucose consumption
same,lactate production,[7],minimal glucose consumption and lactate production
CN(C)C(=N)NC(=N)N [metformin],inhibition of K562 proliferation,[8],relatively weak inhibitor of K562 proliferation
same,risk / incidence of lactic acidosis,[9],significantly less than that observed with phenformin
[H]/N=C(/N)N/C(=N/[H])NCCc1ccccc1 [phenformin],glutamine uptake,[1],failed to demonstrate substantial glutamine uptake
same,inhibition of proliferation of bax-bak deficient cells,[10],prevents proliferation of bax-bak deficient cells; also recorded: consistently more potent an inhibitor than metformin
same,c-myc expression,[11],inhibited c-myc expression more effectively than rapamycin; also recorded: commensurate in efficacy with imatinib
same,cell viability,[2],greater viability over the four days
same,Akt phosphorylation,[3],no suppression of Akt phosphorylation
same,intracellular ATP levels,[12],most profoundly reduced
same,effect on K562 proliferation (cell number),[4]; [16],halted K562 proliferation
same,time after which no increase in cell number was observed,[4]; 1 mM phenformin,24 h
same,cell viability in glucose-depleted medium,[5],significantly increased cell death upon glucose depletion
same,cell viability in glutamine-depleted medium,[5],significantly increased cell death upon glutamine depletion
same,partial oxygen pressure (pO2) of the culture,[13],dramatically different partial oxygen pressures; also recorded: absence of hypoxia; also recorded: maintained an oxygen-rich environment
same,potency in inhibiting K562 proliferation relative to metformin,[8],100 fold
same,inhibition of K562 proliferation,[8],more potent inhibitor of K562 proliferation
same,oxygen consumption,[14],most dramatically reduced oxygen consumption
same,risk / incidence of lactic acidosis,[9],increased risk of lactic acidosis
same,glucose consumption,[7],consumed glucose at rates similar to untreated cells
same,lactate production,[7],accumulated lactate and consumed glucose at rates similar to untreated cells
same,HIF-1 induction,[15],prevented HIF-1 induction; also recorded: prevents hypoxia and HIF-1 induction
